This passage reports IC50, activation and inhibition results from patent US4614732A, “N^6 -acenaphthyl adenosines and analogs thereof” (Warner-Lambert Company, priority 1985, dated 1986).

In experiment [1] the target is T1, adenosine A2 receptor (Rattus norvegicus, UniProt P30543).
T1 construct: Brains were thawed and then kept on ice while the striata were dissected out; tissue Pel-Freez (Rogers, Ark.); host or cells: rat striatum, membranes
The experiment in a line: Adenosine Receptor Binding--A2 Receptor Affinity (RBA2), [3H]NECA displacement, rat striatal membranes. The arrangement: species or system rat (Sprague-Dawley; Long-Evans). Conditions: 4 nM [3H]NECA, 50 nM N6-cyclopentyladenosine, 25° C., 60 min, read-out: IC50 for adenosine A2 receptor affinity (RBA-2). Here is the method:
Brains from 200-500 g mixed sex Sprague-Dawley rats were purchased from Pel-Freez (Rogers, Ark.). Fresh brains from male Long-Evans hooded rats (Blue Spruce Farms, Altamont, NY) gave essentially identical results. Brains were thawed and then kept on ice while the striata were dissected out. Striata were disrupted in 10 vol of ice-cold 50 mM Tris.HCl (pH 7.7 at 25° C., pH 8.26 at 5° C.) (Tris) for 30 seconds in a Polytron PT-10 (Brinkmann) at setting 5. The suspension was centrifuged at 50,000×g for ten minutes, the supernatant discarded, the pellet resuspended in 10 vol ice-cold Tris as above, recentrifuged, resuspended at 1 g/5 ml, and stored in plastic vials at -70° C. (stable for at least six months). When needed, tissue was thawed at room temperature, disrupted in a Polytron, and kept on ice until used.
All incubations were for 60 minutes at 25° C. in 12×75 mm glass tubes containing 1 ml Tris with 5 mg original tissue weight of rat weight of rat striatal membranes, 4 nM [^3 H]-N-ethyl adenosine-5'-carboxamide ([^3 H]NECA), 50 nM N^6 -cyclopentyladenosine (to eliminate A1 receptor binding), 10 mM MgCl2, 0.1 units/ml of adenosine deaminase and 1% dimethylsulfoxide. N^6 -Cyclopentyladenosine was dissolved at 10 mM in 0.02N HCl and diluted in Tris. […]
Incubations were terminated by filtration through 2.4 cm GF/B filters under reduced pressure. […] Filters were put in scintillation vials, 8 ml of Formula 947 scintillation fluid added, and the vials left overnight, shaken, and counted in a liquid scintillation counter at 40% efficiency.
Nonspecific binding was defined as binding in the presence of 100 μM N^6 -cyclopentyladenosine, and specific binding was defined as total binding minus nonspecific binding. The IC50 was calculated by weighted nonlinear least squares curve-fitting to the mass-action equation. […]
Weighting factors were calculated under the assumption that the standard deviation was proportional to the predicted value of Y. Nonspecific binding was treated as a very large (inifinite) concentration of drug in the computer analysis.

For experiment [2], the system named is rat heart. The experiment in a line: Coronary Blood Flow Evaluation: isolated perfused rat heart. As to conditions: for activation at 1 µM / inhibition at 1 µM: 1 × 10^-6 Molar; for activation at 0.1 µM / inhibition at 0.1 µM: 1 × 10^-7 Molar; for activation at 0.01 µM / inhibition at 0.01 µM: 1 × 10^-8 Molar; for activation at 3 µM / inhibition at 3 µM: 3 × 10^-6 Molar; for activation at 0.3 µM / inhibition at 0.3 µM: 3 × 10^-7 Molar; for activation at 0.03 µM / inhibition at 0.03 µM: 3 × 10^-8 Molar. Here is the method: The usefulness of the compounds of the present invention as agents effective to treat angina, is shown by their effectiveness in standard pharmacological test procedures, for example, in causing significant increase in coronary blood flow in rats. This test procedure is described in the following paragraphs.
Male rats (400-600 gms) are pretreated with Na heparin 2000 units and anesthetized with Na pentobarbital (50 mg/kg) administered intraperitoneally. Once anesthetized, the rat heart is rapidly excised, the ascending aorta fitted to the aortic perfusion cannula, and secured with a ligature. The coronary arteries were perfused initially at a rate of about 15 ml/min for two to three minutes, after which they are perfused at constant pressure of 70 mm Hg and temperature of 37° C. The electrocardiogram (ECG) is recorded using two platinum electrodes positioned at the base and apex of the left venticle. A second heart is excised, cannulated, and perfused by the same method outlined above. Both hearts are tested in parallel. The standard physiological salt solution (PSS) is a modified Krebs-Hanseleit bicarbonate buffer of the following composition in mM concentration: NaCl, 127; NaHCO3, 25; dextrose, 5.5; Na Pyruvate, 2.0; KCl, 4.7; MgSO4, 1.1; KH2 PO4, 1.2; CaCl2.2H2 O, 2.5; CaNa2 EDTA, 0.05.
A 30-minute stabilization period is observed before starting the test protocol.
The microprocessor control system is a servo mechanism which permits coronary perfusion pressure (CPP) and drug concentration to be maintained constant independent of changes in coronary flow. The level at which CPP and drug concentration are maintained can be changed by commands communicated through the microprocessor keyboard. Dose-response curves are carried out by perfusing concentrated drug solution (DC) at rates proportional to total coronary flow (CFT). Drug concentrations are increased by proportionate increases in the rate of DC infusion over CFT via the microprocessor keyboard. The proportional flow rates for DC:CFT is about 0.0002:1 at the low end and 0.02:1 at the high end of the dose-response curve. Dose-response curves encompassing at least two log doses are carried out by preparing two DCs with a concentration difference of 1:100. Following the first dose range of two log doses, the DC are switched, proportional pumping rate adjusted, and the dose-responsecurve continued for another two log doses. The standard dose-response curve is carried out in one-half log dose increments starting at a subthreshold dose and ending at a dose which produces near maximal response in activity. Standard reference compounds are tested over the range of 10^-9 to 10^-6 M.
Measurements are for heart rate (HR) and coronary flow (CF). Units are: HR, beats/minute (bpm) and CF, milliliters/minute (ml/min). HR is calculated from the ECG strip chart recording and CF is calculated by recording analog outputs from pumps 1 and 2. Outputs from pump #1=CFT and the output from pump #2=CF for heart B (CFB). CF for heart A (CFA) is calculated (CFT -CFB =CFA).
Using the above techniques, the effects of the compound of Examples 1, 2 and 3 are as follows indicating the compound of Example 3 is preferred to increase coronary blood flow.

Experiment [3] deals with T2, adenosine A1 receptor (Rattus norvegicus, UniProt P25099).
T2 construct: Whole brain minus cerebellum and brainstem from male Long Evans rats; from tissue; host or cells: rat whole brain minus cerebellum and brainstem, membranes
T2 sequence (P25099 1-326): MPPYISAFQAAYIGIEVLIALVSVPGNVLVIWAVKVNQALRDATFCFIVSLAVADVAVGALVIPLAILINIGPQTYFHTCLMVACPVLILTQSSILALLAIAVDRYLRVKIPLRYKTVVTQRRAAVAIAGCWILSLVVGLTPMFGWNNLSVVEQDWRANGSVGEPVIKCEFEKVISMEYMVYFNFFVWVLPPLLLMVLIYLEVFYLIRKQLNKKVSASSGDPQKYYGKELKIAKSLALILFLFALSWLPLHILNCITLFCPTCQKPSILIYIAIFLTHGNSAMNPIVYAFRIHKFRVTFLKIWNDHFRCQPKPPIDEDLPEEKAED
The experiment in a line: Adenosine Receptor Binding--A1 Receptor Affinity (RBA1), [3H]-CHA displacement, rat whole brain membranes. Set-up: species or system rat (male Long Evans). As to conditions: 1.0 nM [3H]-CHA, 25° C., one hour, read-out: IC50 for adenosine A1 receptor affinity (RBA-1). Here is the method:
Whole brain minus cerebellum and brainstem from male Long Evans rats (150-200 g) was homogenized in 30 volumes of ice-cold 0.05M Tris-HCl buffer pH 7.7 using a Brinkman Polytron PT-10, (setting number 6 for 20 seconds) and centrifuged for ten minutes at 20,000×g (Sorvall RC-2), 4° C. The supernatant was discarded, and the pellet was resuspended and centrifuged as before. The pellet was resuspended in 20 ml Tris-HCl buffer containing two International Units/ml of adenosine deaminase (Sigma type III from calf intestinal mucosa), incubated at 37° C. for 30 minutes, then subsequently at 0° C. for ten minutes. The homogenate was again centrifuged, and the final pellet was resuspended in ice-cold 0.05M Tris-HCl buffer pH 7.7 to a concentration of 20 mg/ml original wet tissue weight and used immediately.
Tissue homogenate (10 mg/ml) was incubated in 0.05M Tris-HCl buffer pH 7.7 containing 1.0 nM [^3 H]-N^6 -cyclohexyladenosine ([^3 H]-CHA) with or without test agents in triplicate for one hour at 25° C. Incubation volume was 2 ml. Unbound [^3 H]-CHA was separated by rapid filtration under reduced pressure through Whatman glass fiber (GF/B) filters. The filters were rinsed three times with 5 ml of ice cold 0.05M Tris-HCl buffer pH 7.7. The radio-labeled ligand retained on the filter was measured by liquid scintillation spectrophotometry after shaking the filters for one hour or longer on a mechanical shaker in 10 ml of Beckman Ready-Solv HP scintillation cocktail.
Nonspecific binding was defined as the binding which occurred in the presence of 1 mM theophylline. The concentration of test agent which inhibited 50% of the specific binding (IC50) was determined by nonlinear computer curve fit. The Scatchard plot was calculated by linear regression of the line obtained by plotting the amount of radioligand bound (pmoles/gram of tissue) versus [formula] […] The Hill coefficient was calculated by linear regression of the line obtained by plotting the log of the bound radioligand vs the log of the [formula] The maximal number of binding sites (Bmax) was calculated from the Scatchard plot.

The mark [4] stands for this setting: read-out: coronary flow (CF), % increase.
[5] abbreviates: read-out: heart rate (HR), % decrease.

The structures appear in SMILES notation.

T1 sequence (P30543 whole entry): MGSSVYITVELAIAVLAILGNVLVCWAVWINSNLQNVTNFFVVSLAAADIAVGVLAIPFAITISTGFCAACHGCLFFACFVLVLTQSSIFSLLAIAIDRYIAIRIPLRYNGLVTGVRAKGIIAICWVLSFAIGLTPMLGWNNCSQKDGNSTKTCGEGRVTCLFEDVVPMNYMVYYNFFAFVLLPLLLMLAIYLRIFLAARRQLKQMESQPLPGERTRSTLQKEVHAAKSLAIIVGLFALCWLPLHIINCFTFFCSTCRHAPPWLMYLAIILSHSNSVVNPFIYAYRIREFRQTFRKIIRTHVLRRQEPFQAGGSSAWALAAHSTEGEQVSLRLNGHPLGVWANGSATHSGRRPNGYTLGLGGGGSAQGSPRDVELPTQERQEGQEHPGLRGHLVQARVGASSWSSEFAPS

As a reminder, the IC50 is the point on the concentration scale where inhibition reaches its midpoint. Consider `OC[C@H]1O[C@@H](n2cnc3c(NC4Cc5cccc6cccc4c56)ncnc32)[C@H](O)[C@@H]1O` (stereo partly drawn) [Example 1, N^6 -Acenaphthyladenosine], for which the IC50 in experiment [1] is 950 nM. In addition, in experiment [2] (setting [4]), the activation at 1 µM worked out at 44%, the activation at 0.1 µM was 27%, the activation at 0.01 µM was determined as 0% and the activation at 3 µM is 49%. Also, in experiment [2] (setting [4]), the activation at 0.3 µM was 40% and the activation at 0.03 µM came to 7%. In experiment [2] (setting [5]), the inhibition at 1 µM turned out to be 5%, the inhibition at 0.1 µM was determined as 2%, the inhibition at 0.01 µM is 1% and the inhibition at 3 µM turned out to be 8%. For the same compound, in experiment [2] (setting [5]), the inhibition at 0.3 µM was 2% and the inhibition at 0.03 µM came out at 0%. Further, the half-maximal inhibitory concentration (IC50) in experiment [3] came out at 640 nM.

Regarding `OC[C@H]1O[C@@H](n2cnc3c(NCC4=Cc5cccc6cccc4c56)ncnc32)[C@H](O)[C@@H]1O` [Example 2, N^6-(1-acenaphthylenylmethyl)adenosine], the half-inhibitory concentration (IC50) in experiment [1] is 63 nM. Moreover, in experiment [2] (setting [4]), the activation at 1 µM turned out to be 62%, the activation at 0.01 µM amounted to 37%, the activation at 0.3 µM is 60% and the activation at 0.03 µM worked out at 48%. Besides, in experiment [2] (setting [5]), the inhibition at 1 µM was found to be 30%, the inhibition at 0.01 µM was 1%, the inhibition at 0.3 µM turned out to be 25% and the inhibition at 0.03 µM amounted to 4%. The activation at 0.001 µM in experiment [2] (1 × 10^-9 Molar, read-out: coronary flow (CF), % increase) amounted to 2%. For the same compound, the inhibition at 0.001 µM in experiment [2] (1 × 10^-9 Molar, read-out: heart rate (HR), % decrease) is -1%. In experiment [2] (3 × 10^-9 Molar, read-out: coronary flow (CF), % increase), the activation at 0.003 µM worked out at 7%. In experiment [2] (3 × 10^-9 Molar, read-out: heart rate (HR), % decrease), the inhibition at 0.003 µM is -1%. In experiment [3], the IC50 worked out at 92 nM.

As for `OC[C@H]1O[C@@H](n2cnc3c(NCC4Cc5cccc6cccc4c56)ncnc32)[C@H](O)[C@@H]1O` (stereo partly drawn) [Example 3, N^6-[(1,2-Dihydro-1-acenaphthylenyl)methyl]adenosine], in experiment [1], the concentration for half-maximal inhibition (IC50) stood at 24 nM. Further, in experiment [2] (setting [4]), the activation at 1 µM is 62%, the activation at 0.1 µM turned out to be 58%, the activation at 0.01 µM stood at 41% and the activation at 3 µM is 67%. Moreover, in experiment [2] (setting [4]), the activation at 0.3 µM was 67% and the activation at 0.03 µM turned out to be 49%. Further, in experiment [2] (setting [5]), the inhibition at 1 µM was 65%, the inhibition at 0.1 µM turned out to be 36%, the inhibition at 0.01 µM turned out to be 2% and the inhibition at 3 µM turned out to be 68%. Besides, in experiment [2] (setting [5]), the inhibition at 0.3 µM was 44% and the inhibition at 0.03 µM was 8%. Also, the half-maximal inhibitory concentration (IC50) in experiment [3] was determined as 6 nM.
